Results taken from patent US10800741B2 (ANCUREALL PHARMACEUTICAL (SHANGHAI) CO., LTD., priority 2017, dated 2020).

Assays:
Experiment in all cases: KINOMEscan in vitro binding to 468 labeled protein kinases
[1] = target: T1, protein kinases (Homo sapiens, UniProt P09619); conditions: PDGFRB, read-out: Test compound/solvent control (%)
T1 construct: purchased Discovery X company (USA), KINOMEscan screening platform
Procedure: (§1) Test Example 6 Determination of Binding Affinity of the Present Compounds on Protein Kinases In Vitro
(§2) KINOMEscan screening platform of Discovery X company (USA) was used to identify the binding targets of the present compounds to protein kinases. Compound 66 of the present invention was dissolved in DMSO (Sigma Aldrich) at concentrations of 1000 nM, 10 nM and 1 nM, and then was subjected to in vitro binding reaction with 468 labeled protein kinases. Two samples were taken in parallel for each assay sample.
(§3) The lower the percentage of the test compound to the solvent control, the stronger the binding affinity of the test compound to the protein kinase in vitro.

[2] = target: T2, protein kinases (Homo sapiens, UniProt P30530); conditions: AXL, read-out: Test compound/solvent control (%)
T2 construct: purchased Discovery X company (USA), KINOMEscan screening platform
T2 sequence (P30530 26-894): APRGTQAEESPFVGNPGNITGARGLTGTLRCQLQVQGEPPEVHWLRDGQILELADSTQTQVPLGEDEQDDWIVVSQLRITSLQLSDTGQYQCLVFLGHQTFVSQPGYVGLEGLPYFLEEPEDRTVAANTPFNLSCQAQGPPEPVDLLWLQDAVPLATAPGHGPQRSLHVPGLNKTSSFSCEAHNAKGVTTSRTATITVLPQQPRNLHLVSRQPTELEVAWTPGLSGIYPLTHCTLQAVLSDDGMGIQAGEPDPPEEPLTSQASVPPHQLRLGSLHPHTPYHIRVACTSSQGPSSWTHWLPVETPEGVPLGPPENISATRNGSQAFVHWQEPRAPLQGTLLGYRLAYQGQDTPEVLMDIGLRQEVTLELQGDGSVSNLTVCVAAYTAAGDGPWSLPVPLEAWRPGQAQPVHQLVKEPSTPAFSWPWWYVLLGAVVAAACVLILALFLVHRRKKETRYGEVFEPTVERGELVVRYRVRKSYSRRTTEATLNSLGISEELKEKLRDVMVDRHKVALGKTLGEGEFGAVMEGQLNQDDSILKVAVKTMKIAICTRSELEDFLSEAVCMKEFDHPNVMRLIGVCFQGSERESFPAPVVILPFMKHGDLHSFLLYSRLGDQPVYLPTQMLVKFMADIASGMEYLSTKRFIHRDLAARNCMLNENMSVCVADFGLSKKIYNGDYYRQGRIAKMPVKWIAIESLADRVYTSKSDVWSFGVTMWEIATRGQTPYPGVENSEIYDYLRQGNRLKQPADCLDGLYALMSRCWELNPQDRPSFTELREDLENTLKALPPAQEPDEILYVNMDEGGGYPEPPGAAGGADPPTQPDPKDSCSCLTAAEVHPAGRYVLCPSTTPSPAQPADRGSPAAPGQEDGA
Procedure: as §1, §2, §3

[3] = target: T3, protein kinases (Homo sapiens, UniProt P10721, A829P); conditions: KIT(A829P), read-out: Test compound/solvent control (%)
T3 construct: purchased Discovery X company (USA), KINOMEscan screening platform
Procedure: as §1, §2, §3

[4] = system: protein kinases
Procedure: as §1, §2, §3

[5] = target: T4, protein kinases (Homo sapiens, UniProt P00533, DEL746-750); conditions: EGFR(E746-A750de1)
T4 construct: purchased Discovery X company (USA), KINOMEscan screening platform
Procedure: as §1, §2, §3

[6] = target: T5, protein kinases (Homo sapiens, UniProt P07949, V804M); conditions: RET(V804M), read-out: Test compound/solvent control (%)
T5 construct: purchased Discovery X company (USA), KINOMEscan screening platform
Procedure: as §1, §2, §3

[7] = target: T6, protein kinases (Homo sapiens, UniProt Q12866); conditions: MERTK, read-out: Test compound/solvent control (%)
T6 construct: purchased Discovery X company (USA), KINOMEscan screening platform
T6 sequence (Q12866 21-999): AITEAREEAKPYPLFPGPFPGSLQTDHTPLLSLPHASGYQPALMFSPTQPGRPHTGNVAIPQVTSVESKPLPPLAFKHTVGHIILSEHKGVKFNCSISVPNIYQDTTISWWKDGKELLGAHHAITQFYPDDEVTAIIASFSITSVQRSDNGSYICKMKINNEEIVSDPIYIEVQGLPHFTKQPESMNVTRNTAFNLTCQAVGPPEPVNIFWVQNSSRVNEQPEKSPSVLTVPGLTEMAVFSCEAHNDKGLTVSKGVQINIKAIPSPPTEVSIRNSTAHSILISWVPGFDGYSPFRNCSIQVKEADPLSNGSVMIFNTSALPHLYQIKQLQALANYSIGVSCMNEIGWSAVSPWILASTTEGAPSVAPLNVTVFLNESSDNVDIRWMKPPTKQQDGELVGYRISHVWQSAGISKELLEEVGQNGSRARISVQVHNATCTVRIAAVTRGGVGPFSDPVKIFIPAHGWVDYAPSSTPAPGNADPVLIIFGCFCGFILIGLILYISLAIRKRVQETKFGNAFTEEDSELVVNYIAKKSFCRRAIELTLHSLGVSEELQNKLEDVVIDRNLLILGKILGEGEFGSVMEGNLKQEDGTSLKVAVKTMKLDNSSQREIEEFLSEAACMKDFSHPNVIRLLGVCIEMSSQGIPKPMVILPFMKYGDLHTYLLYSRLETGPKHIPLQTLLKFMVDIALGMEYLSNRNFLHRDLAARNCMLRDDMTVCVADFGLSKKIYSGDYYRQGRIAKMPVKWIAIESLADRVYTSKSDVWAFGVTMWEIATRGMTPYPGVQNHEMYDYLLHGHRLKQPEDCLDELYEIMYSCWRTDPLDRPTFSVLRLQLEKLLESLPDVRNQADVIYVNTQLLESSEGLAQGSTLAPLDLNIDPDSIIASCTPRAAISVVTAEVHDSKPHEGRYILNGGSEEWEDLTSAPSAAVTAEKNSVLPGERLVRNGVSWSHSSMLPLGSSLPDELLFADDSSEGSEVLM
Procedure: as §1, §2, §3

[8] = target: T7, protein kinases (Homo sapiens, UniProt P00533, G719C); conditions: EGFR(G719C)
T7 construct: purchased Discovery X company (USA), KINOMEscan screening platform
Procedure: as §1, §2, §3

T7 sequence (P00533 25-1210 G719C): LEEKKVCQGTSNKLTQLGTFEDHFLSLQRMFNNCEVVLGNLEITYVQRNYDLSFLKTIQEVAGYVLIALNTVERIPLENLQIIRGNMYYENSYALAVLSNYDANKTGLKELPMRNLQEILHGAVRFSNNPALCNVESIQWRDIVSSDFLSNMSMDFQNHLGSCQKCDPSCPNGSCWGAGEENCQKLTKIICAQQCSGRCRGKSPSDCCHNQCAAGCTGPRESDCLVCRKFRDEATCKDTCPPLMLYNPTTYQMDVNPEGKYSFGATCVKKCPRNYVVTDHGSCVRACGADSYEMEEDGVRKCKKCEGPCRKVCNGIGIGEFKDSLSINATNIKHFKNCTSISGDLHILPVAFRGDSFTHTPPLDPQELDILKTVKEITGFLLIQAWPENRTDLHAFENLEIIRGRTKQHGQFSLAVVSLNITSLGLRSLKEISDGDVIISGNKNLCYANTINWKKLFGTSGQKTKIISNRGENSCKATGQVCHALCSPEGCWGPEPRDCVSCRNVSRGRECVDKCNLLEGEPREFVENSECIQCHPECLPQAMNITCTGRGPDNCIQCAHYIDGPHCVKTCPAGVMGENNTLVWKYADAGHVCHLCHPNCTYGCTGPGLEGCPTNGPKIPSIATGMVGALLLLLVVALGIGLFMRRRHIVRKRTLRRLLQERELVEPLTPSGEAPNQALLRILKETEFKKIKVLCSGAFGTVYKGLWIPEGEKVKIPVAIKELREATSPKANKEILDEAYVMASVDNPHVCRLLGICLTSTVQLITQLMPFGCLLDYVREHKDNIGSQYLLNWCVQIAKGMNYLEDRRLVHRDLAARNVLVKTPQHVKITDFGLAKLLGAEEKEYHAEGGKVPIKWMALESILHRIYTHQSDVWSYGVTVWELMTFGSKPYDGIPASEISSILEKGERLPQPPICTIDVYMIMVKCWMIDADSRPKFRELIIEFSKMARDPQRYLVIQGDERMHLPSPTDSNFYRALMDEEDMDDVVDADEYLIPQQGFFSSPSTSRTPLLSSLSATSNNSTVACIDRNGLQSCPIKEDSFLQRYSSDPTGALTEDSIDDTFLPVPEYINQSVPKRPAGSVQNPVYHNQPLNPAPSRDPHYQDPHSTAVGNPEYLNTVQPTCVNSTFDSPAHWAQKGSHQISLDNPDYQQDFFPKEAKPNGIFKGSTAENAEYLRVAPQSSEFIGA
T1 sequence (P09619 33-1106): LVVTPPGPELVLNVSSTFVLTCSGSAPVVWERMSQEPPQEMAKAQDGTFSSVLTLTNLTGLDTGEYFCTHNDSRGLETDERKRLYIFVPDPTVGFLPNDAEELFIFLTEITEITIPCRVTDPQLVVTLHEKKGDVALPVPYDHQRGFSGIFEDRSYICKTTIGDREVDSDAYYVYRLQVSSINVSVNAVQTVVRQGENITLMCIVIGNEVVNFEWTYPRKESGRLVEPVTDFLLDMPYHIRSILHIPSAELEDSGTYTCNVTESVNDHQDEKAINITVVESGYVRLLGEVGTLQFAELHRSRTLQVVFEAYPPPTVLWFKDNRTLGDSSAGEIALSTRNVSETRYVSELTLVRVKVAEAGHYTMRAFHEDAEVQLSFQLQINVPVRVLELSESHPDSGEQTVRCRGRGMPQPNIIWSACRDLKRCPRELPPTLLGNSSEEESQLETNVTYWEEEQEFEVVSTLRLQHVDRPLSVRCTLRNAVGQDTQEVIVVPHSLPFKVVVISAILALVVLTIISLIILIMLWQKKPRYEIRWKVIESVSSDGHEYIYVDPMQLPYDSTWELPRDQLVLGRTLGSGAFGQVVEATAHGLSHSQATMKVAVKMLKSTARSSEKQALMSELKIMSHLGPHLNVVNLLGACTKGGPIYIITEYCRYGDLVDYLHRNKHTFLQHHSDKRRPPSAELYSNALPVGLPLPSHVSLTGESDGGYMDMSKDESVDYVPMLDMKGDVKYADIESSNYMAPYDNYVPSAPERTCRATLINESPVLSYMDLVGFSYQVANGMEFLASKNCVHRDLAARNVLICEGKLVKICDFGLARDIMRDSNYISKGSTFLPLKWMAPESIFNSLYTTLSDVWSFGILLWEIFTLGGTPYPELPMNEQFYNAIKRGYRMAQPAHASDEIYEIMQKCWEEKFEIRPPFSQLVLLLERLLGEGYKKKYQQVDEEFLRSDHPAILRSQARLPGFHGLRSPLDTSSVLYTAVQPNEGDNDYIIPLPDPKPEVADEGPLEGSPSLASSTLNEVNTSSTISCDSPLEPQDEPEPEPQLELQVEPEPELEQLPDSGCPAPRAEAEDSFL
T3 sequence (P10721 26-976 A829P): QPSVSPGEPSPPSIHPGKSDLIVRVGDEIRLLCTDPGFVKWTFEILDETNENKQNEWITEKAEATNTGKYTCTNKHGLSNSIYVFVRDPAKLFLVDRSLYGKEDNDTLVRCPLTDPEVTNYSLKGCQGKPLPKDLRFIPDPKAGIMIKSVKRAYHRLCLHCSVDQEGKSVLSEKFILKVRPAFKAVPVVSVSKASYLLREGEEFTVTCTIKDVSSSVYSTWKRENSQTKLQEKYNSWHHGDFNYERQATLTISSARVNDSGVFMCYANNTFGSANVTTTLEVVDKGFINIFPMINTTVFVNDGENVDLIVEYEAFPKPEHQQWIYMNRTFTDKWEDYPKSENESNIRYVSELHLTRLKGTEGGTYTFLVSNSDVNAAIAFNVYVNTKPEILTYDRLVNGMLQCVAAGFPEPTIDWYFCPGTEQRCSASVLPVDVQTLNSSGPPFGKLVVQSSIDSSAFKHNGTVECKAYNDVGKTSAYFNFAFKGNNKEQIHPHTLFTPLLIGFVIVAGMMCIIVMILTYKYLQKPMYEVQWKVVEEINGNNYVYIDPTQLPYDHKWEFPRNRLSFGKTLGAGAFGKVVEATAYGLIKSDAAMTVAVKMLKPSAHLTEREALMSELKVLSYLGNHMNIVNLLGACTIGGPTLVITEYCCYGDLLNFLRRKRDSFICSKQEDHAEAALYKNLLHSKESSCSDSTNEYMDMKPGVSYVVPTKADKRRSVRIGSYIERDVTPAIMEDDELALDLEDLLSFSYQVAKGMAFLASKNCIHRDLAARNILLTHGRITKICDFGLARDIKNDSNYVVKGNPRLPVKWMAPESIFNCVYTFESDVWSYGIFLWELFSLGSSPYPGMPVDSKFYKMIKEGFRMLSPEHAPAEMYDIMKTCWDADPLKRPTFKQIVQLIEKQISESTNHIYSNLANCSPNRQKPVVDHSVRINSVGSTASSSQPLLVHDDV
T4 sequence (P00533 with tags, fused parts or gaps DEL746-750): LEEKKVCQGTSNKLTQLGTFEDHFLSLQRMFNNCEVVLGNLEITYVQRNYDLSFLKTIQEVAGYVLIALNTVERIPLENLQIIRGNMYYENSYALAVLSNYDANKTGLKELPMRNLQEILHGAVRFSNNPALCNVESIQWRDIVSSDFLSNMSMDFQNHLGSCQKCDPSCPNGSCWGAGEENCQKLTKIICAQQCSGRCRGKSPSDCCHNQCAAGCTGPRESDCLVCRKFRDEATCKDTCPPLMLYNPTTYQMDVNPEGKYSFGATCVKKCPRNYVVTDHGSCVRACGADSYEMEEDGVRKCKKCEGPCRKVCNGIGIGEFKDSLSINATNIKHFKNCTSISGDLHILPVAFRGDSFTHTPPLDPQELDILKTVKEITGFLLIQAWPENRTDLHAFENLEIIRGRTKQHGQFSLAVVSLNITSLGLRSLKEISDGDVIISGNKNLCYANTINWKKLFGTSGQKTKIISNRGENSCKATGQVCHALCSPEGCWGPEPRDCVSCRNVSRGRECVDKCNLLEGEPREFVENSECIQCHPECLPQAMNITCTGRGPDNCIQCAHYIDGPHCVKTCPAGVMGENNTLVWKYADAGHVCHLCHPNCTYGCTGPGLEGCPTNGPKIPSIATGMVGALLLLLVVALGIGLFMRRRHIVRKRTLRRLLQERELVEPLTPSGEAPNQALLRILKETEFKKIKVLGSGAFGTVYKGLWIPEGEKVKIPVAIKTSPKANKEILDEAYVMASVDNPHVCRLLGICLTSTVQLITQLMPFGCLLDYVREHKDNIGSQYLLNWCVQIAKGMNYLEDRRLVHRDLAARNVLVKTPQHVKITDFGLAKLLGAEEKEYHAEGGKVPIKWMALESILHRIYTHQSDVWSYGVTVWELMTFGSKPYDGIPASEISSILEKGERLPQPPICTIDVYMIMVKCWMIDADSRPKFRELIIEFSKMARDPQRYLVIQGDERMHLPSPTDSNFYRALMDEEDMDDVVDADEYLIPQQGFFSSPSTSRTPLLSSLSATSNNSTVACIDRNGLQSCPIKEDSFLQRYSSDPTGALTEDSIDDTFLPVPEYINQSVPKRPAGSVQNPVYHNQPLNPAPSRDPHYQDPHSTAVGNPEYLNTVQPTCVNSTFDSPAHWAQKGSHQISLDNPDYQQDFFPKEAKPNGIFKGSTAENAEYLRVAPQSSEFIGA

## COCCOc1cc2nccc(Oc3ccc(NC(=O)Nc4cc(C(C)(C)C)n[nH]4)c(Cl)c3)c2cc1NC(C)=O [Compound 66, N-[4-{4-[3-(5-tert-butyl-2H-pyrazol-3-yl)-ureido]-3-chloro-phenoxy}-7-(2-methoxy-ethoxy)-quinolin-6-yl]-acetamide]
[1]; 1 nM
  remaining binding at 0.001 µM: 81%
[1]; 10 nM
  remaining binding at 0.01 µM: 6.2%
[1]; 1000 nM
  remaining binding at 1 µM: 0%
[2]; 1 nM
  remaining binding at 0.001 µM: 53%
[2]; 10 nM
  remaining binding at 0.01 µM: 7.2%
[2]; 1000 nM
  remaining binding at 1 µM: 4.1%
[3]; 1 nM
  remaining binding at 0.001 µM: 84%
[3]; 10 nM
  remaining binding at 0.01 µM: 22%
[3]; 1000 nM
  remaining binding at 1 µM: 0%
[4]; EGFR(L747-E749del, A750P), 1 nM
  Test compound/solvent control (%): 92%
[4]; EGFR(L747-E749del, A750P), 10 nM
  Test compound/solvent control (%): 11%
[4]; EGFR(L747-E749del, A750P), 1000 nM
  Test compound/solvent control (%): 0%
[4]; EGFR(L747-S752del, P753S), 1 nM
  Test compound/solvent control (%): 67%
[4]; EGFR(L747-S752del, P753S), 10 nM
  Test compound/solvent control (%): 16%
[4]; EGFR(L747-S752del, P753S), 1000 nM
  Test compound/solvent control (%): 1.6%
[4]; EGFR(L747-T751del, Sins), 1 nM
  Test compound/solvent control (%): 68%
[4]; EGFR(L747-T751del, Sins), 10 nM
  Test compound/solvent control (%): 11%
[4]; EGFR(L747-T751del, Sins), 1000 nM
  Test compound/solvent control (%): 2.7%
[5]; 1 nM
  Test compound/solvent control (%): 60%
[5]; 10 nM
  Test compound/solvent control (%): 18%
[5]; 1000 nM
  Test compound/solvent control (%): 2.8%
[6]; 1 nM
  remaining binding at 0.001 µM: 100%
[6]; 10 nM
  remaining binding at 0.01 µM: 34%
[6]; 1000 nM
  remaining binding at 1 µM: 0%
[7]; 1 nM
  remaining binding at 0.001 µM: 57%
[7]; 10 nM
  remaining binding at 0.01 µM: 4.1%
[7]; 1000 nM
  remaining binding at 1 µM: 0.65%
[8]; 1 nM
  Test compound/solvent control (%): 83%
[8]; 10 nM
  Test compound/solvent control (%): 30%
[8]; 1000 nM
  Test compound/solvent control (%): 0.2%
